Results: PubChem BioAssay AID330 (DTP/NCI, 2004)
Several values for one entry are separate records, joined by “and”; a condition that tells them apart may be missing. Equal entries are not always repeated. Inconclusive results and toxic doses are left out. How the source made its calls: active means survival T/C of 150% or more; inactive means T/C below 125% in these data.

System: P388 leukemia ip, CD2F1 mice, survival T/C
Experiment: NCI In Vivo Anticancer Drug Screen. Data for tumor model P388 Leukemia (intraperitoneal) in CD2F1 (CDF1) mice
Settings: endpoint: median survival time, higher = longer survival
Method in brief: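 Mice carrying the transplanted tumor received test compound or vehicle. Survival was recorded in each group, and the value is the treated-group measurement divided by that of the vehicle-treated control group.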

[1] = dose: 60.0 mg/kg/injection, schedule: Q01DX005 (ip), vehicle: saline with Tween-80
[2] = dose: 120.0 mg/kg/injection, schedule: Q01DX005 (ip), vehicle: saline with Tween-80
[3] = dose: 240.0 mg/kg/injection, schedule: Q01DX005 (ip), vehicle: saline with Tween-80
[4] = dose: 50.0 mg/kg/injection, schedule: Q01DX009 (ip), vehicle: saline with Tween-80
[5] = dose: 100.0 mg/kg/injection, schedule: Q01DX009 (ip), vehicle: saline with Tween-80
[6] = dose: 200.0 mg/kg/injection, schedule: Q01DX009 (ip), vehicle: saline with Tween-80
[7] = dose: 60.0 mg/kg/injection, schedule: Q01DX005 (ip), vehicle: Klucel (hydroxypropylcellulose) (HPC)
[8] = dose: 120.0 mg/kg/injection, schedule: Q01DX005 (ip), vehicle: Klucel (hydroxypropylcellulose) (HPC)
[9] = dose: 240.0 mg/kg/injection, schedule: Q01DX005 (ip), vehicle: Klucel (hydroxypropylcellulose) (HPC)
[10] = dose: 1.56 mg/kg/injection, schedule: Q01DX009 (ip), vehicle: saline
[11] = dose: 3.13 mg/kg/injection, schedule: Q01DX009 (ip), vehicle: saline
[12] = dose: 6.25 mg/kg/injection, schedule: Q01DX009 (ip), vehicle: saline
[13] = dose: 12.5 mg/kg/injection, schedule: Q01DX009 (ip), vehicle: saline

Measured: T/C

O=NN(CCCl)C(=O)Nc1cc(=O)[nH]c(SCc2ccccc2)n1
inactive: dose: 322.0 mg/kg/injection, schedule: Q04DX002 (ip), vehicle: Klucel (hydroxypropylcellulose) (HPC) 101 % of control
active: dose: 10.06 mg/kg/injection, schedule: Q04DX002 (ip), vehicle: Klucel (hydroxypropylcellulose) (HPC) 151 % of control | dose: 40.25 mg/kg/injection, schedule: Q04DX002 (ip), vehicle: Klucel (hydroxypropylcellulose) (HPC) 158 % of control | dose: 80.5 mg/kg/injection, schedule: Q04DX002 (ip), vehicle: Klucel (hydroxypropylcellulose) (HPC) 178 % of control | dose: 161.0 mg/kg/injection, schedule: Q04DX002 (ip), vehicle: Klucel (hydroxypropylcellulose) (HPC) 150 % of control and 158 % of control

O=S(=O)(F)C(Br)(Br)S(=O)(=O)F
inactive: dose: 50.0 mg/kg/injection, schedule: Q01DX005 (ip), vehicle: Klucel (hydroxypropylcellulose) (HPC) 97 % of control | dose: 100.0 mg/kg/injection, schedule: Q01DX005 (ip), vehicle: Klucel (hydroxypropylcellulose) (HPC) 97 % of control

COCc1ccnn1-c1ccccc1C
inactive: [1] 97 % of control | [2] 97 % of control | [3] 104 % of control

CCSC(=O)c1cc(C(=O)SCC)cc(C(C)(C)C)c1
inactive: dose: 25.0 mg/kg/injection, schedule: Q01DX009 (ip), vehicle: saline 100 % of control and 105 % of control | [4] 100 % of control | dose: 50.0 mg/kg/injection, schedule: Q01DX009 (ip), vehicle: saline 98 % of control and 95 % of control | [5] 114 % of control | dose: 100.0 mg/kg/injection, schedule: Q01DX009 (ip), vehicle: saline 98 % of control and 101 % of control | [6] 124 % of control | dose: 200.0 mg/kg/injection, schedule: Q01DX009 (ip), vehicle: saline 107 % of control and 97 % of control

CC(C)CC(NC(c1ccccc1)P(=O)(O)O)C(=O)O (stereo not given)
inactive: [1] 100 % of control | [2] 96 % of control | [3] 91 % of control

CC(CCO)CCC(Br)C(C)(C)Br (stereo not given)
inactive: dose: 50.0 mg/kg/injection, schedule: Q01DX005 (ip), vehicle: saline 103 % of control | dose: 100.0 mg/kg/injection, schedule: Q01DX005 (ip), vehicle: saline 105 % of control | dose: 200.0 mg/kg/injection, schedule: Q01DX005 (ip), vehicle: saline 100 % of control

CN=C(c1ccc(NC(=O)c2cccc(C(=O)Nc3ccc(C(=NC)N(C)C)cc3)c2)cc1)N(C)C
inactive: dose: 1.56 mg/kg/injection, schedule: Q01DX005 (ip), vehicle: saline 102 % of control | dose: 3.12 mg/kg/injection, schedule: Q01DX005 (ip), vehicle: saline 102 % of control | dose: 6.25 mg/kg/injection, schedule: Q01DX005 (ip), vehicle: saline 106 % of control and 96 % of control

CCC(N)Cc1cc(OC)c(C)cc1OC (stereo not given)
inactive: dose: 25.0 mg/kg/injection, schedule: Q01DX009 (ip), vehicle: saline with Tween-80 90 % of control | [4] 98 % of control and 99 % of control | [5] 103 % of control

O=C(CNC(=O)Nc1ccc(Cl)c(Cl)c1)N/N=C/c1cccc(F)c1
inactive: dose: 15.0 mg/kg/injection, schedule: Q01DX005 (ip), vehicle: saline with Tween-80 89 % of control | dose: 30.0 mg/kg/injection, schedule: Q01DX005 (ip), vehicle: saline with Tween-80 91 % of control | [1] 89 % of control

O=C(c1ccccc1)N1C=CN(C(=O)c2ccccc2)C1c1nccn1C(=O)c1ccccc1
inactive: [4] 105 % of control | [5] 96 % of control | [6] 91 % of control

COc1cc(Cl)ccc1NC(=O)Oc1cc(C)c(I)cc1C
inactive: [4] 104 % of control | [5] 100 % of control | [6] 88 % of control

CN(C)c1nc(N(C)C)n2nc(-c3ccccc3[N+](=O)[O-])nc2n1
inactive: dose: 100.0 mg/kg/injection, schedule: Q04DX003 (ip), vehicle: saline with Tween-80 104 % of control | dose: 200.0 mg/kg/injection, schedule: Q04DX003 (ip), vehicle: saline with Tween-80 96 % of control | dose: 400.0 mg/kg/injection, schedule: Q04DX003 (ip), vehicle: saline with Tween-80 95 % of control

CCC1(O)CC(O)c2c(O)c3c(c(O)c2C1C(=O)OC)C(=O)c1cccc(O)c1C3=O (stereo not given)
inactive: [7] 96 % of control | [8] 94 % of control | [9] 105 % of control

Nc1ccc(-c2nc3ccccc3[nH]2)cc1
inactive: dose: 50.0 mg/kg/injection, schedule: Q04DX003 (ip), vehicle: saline 100 % of control | dose: 100.0 mg/kg/injection, schedule: Q04DX003 (ip), vehicle: saline 100 % of control | dose: 200.0 mg/kg/injection, schedule: Q04DX003 (ip), vehicle: saline 96 % of control

CCOC(=O)c1c[nH]c2cc(Cl)ccc2c1=O
inactive: [4] 93 % of control | [5] 98 % of control | [6] 93 % of control

CC(C)C=C1[C@H](O)CC[C@@H]1O
inactive: dose: 100.0 mg/kg/injection, schedule: Q04DX002 (ip), vehicle: saline 101 % of control | dose: 200.0 mg/kg/injection, schedule: Q04DX002 (ip), vehicle: saline 101 % of control | dose: 400.0 mg/kg/injection, schedule: Q04DX002 (ip), vehicle: saline 96 % of control

Clc1ccc(Cl)c(NNc2cc(Cl)ccc2Cl)c1
inactive: dose: 25.0 mg/kg/injection, schedule: Q01DX009 (ip), vehicle: Klucel (hydroxypropylcellulose) (HPC) 96 % of control | dose: 50.0 mg/kg/injection, schedule: Q01DX009 (ip), vehicle: Klucel (hydroxypropylcellulose) (HPC) 91 % of control | dose: 100.0 mg/kg/injection, schedule: Q01DX009 (ip), vehicle: Klucel (hydroxypropylcellulose) (HPC) 87 % of control | dose: 200.0 mg/kg/injection, schedule: Q01DX009 (ip), vehicle: Klucel (hydroxypropylcellulose) (HPC) 102 % of control

CCOC(=O)/C=C(\Cl)C(=O)OCC
inactive: dose: 1.56 mg/kg/injection, schedule: Q01DX009 (ip), vehicle: saline with Tween-80 95 % of control | [10] 101 % of control | dose: 3.13 mg/kg/injection, schedule: Q01DX009 (ip), vehicle: saline with Tween-80 104 % of control and 110 % of control | [11] 103 % of control | dose: 6.25 mg/kg/injection, schedule: Q01DX009 (ip), vehicle: saline with Tween-80 111 % of control and 123 % of control | [12] 112 % of control | dose: 12.5 mg/kg/injection, schedule: Q01DX009 (ip), vehicle: saline with Tween-80 111 % of control | [13] 118 % of control

CCO/C=C1/N=C(c2ccccc2Cl)OC1=O
inactive: [1] 106 % of control | [2] 118 % of control | [3] 98 % of control

Cc1ccc(S(=O)(=O)NNC(=O)CCn2[nH]c(=O)c(Cl)c(Cl)c2=O)cc1
inactive: [1] 99 % of control | [2] 103 % of control | [3] 98 % of control

CC(C)=CCC/C(C)=C/CC1=C(O)c2ccccc2C(=O)C1=O
inactive: [10] 98 % of control | dose: 3.12 mg/kg/injection, schedule: Q01DX009 (ip), vehicle: saline 100 % of control | [12] 100 % of control | [13] 104 % of control and 94 % of control

O=C1S/C(=C2\C(=O)N(CN3CCOCC3)c3ccccc32)C(=O)N1CN1CCOCC1
inactive: [7] 100 % of control | [8] 108 % of control | [9] 108 % of control

O=C1C=C(Nc2ccc(Br)cc2)C(Nc2ccc(Br)cc2)=CC1=O
inactive: dose: 4.68 mg/kg/injection, schedule: Q01DX009 (ip), vehicle: saline with Tween-80 97 % of control | dose: 9.37 mg/kg/injection, schedule: Q01DX009 (ip), vehicle: saline with Tween-80 105 % of control | dose: 18.75 mg/kg/injection, schedule: Q01DX005 (ip), vehicle: saline with Tween-80 100 % of control | dose: 18.75 mg/kg/injection, schedule: Q01DX009 (ip), vehicle: saline with Tween-80 106 % of control | dose: 37.5 mg/kg/injection, schedule: Q01DX005 (ip), vehicle: saline with Tween-80 92 % of control

C[N+](C)(C)CCOS(C)(=O)=O
inactive: dose: 1.56 mg/kg/injection, schedule: Q01DX009 (ip), vehicle: Klucel (hydroxypropylcellulose) (HPC) 90 % of control and 93 % of control | [10] 101 % of control | dose: 3.13 mg/kg/injection, schedule: Q01DX009 (ip), vehicle: Klucel (hydroxypropylcellulose) (HPC) 99 % of control | [11] 111 % of control and 95 % of control | dose: 6.25 mg/kg/injection, schedule: Q01DX009 (ip), vehicle: Klucel (hydroxypropylcellulose) (HPC) 89 % of control (2×) and 94 % of control | [12] 90 % of control | [13] 92 % of control
